Source: ChEMBL document CHEMBL1201862, “PubChem BioAssay data set” (2004)
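Cultured in 96-well plates, cells were exposed to test compound for 48 hours across five concentrations. The concentration for 50% growth inhibition is given as GI50.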 Calls of active or inactive are those of the source. Rule as the data show it: active = GI50 up to about 1.1 µM and inactive = higher.

Key:
Experiment in all cases: growth of human tumour cells (NCI), 48 h
[1] = tested on: M14
[2] = tested on: NCI-H522
[3] = tested on: SK-MEL-5
[4] = tested on: MDA-MB-231
[5] = tested on: HOP-92
[6] = tested on: SF-295
[7] = tested on: HT-29
[8] = tested on: BT-549
[9] = tested on: EKVX
[10] = tested on: NCI/ADR-RES
[11] = tested on: 786-0
[12] = tested on: MDA-N
[13] = tested on: RPMI-8226
[14] = tested on: SF-539
[15] = tested on: HOP-62
[16] = tested on: UACC-257
[17] = tested on: SW-620
[18] = tested on: OVCAR-3
[19] = tested on: SN12C
[20] = tested on: A549
[21] = tested on: SF-268
[22] = tested on: MDA-MB-435
[23] = tested on: U-251
[24] = tested on: OVCAR-8
[25] = tested on: HCC 2998
[26] = tested on: TK-10
[27] = tested on: ACHN
[28] = tested on: SK-MEL-2
[29] = tested on: CCRF-CEM
[30] = tested on: SNB-75
[31] = tested on: Hs-578T
[32] = tested on: HCT-15
[33] = tested on: A498
[34] = tested on: PC-3
[35] = tested on: T47D
[36] = tested on: DU-145
[37] = tested on: IGROV-1
[38] = tested on: OVCAR-5
[39] = tested on: KM12
[40] = tested on: K562
[41] = tested on: OVCAR-4
[42] = tested on: MOLT-4
[43] = tested on: NCI-H460
[44] = tested on: UO-31
[45] = tested on: SR
[46] = tested on: COLO 205
[47] = tested on: NCI-H23
[48] = tested on: RXF 393
[49] = tested on: HL-60
[50] = tested on: HCT-116
[51] = tested on: NCI-H226
[52] = tested on: CAKI-1
[53] = tested on: SK-MEL-28
[54] = tested on: SK-OV-3
[55] = tested on: SNB-19
[56] = tested on: MCF7
[57] = tested on: UACC-62
[58] = tested on: LOX IMVI

SMILES: Cc1c(C(C)C)cc(OCCO)cc1C(C)C
- GI50 [1]: 38.8 µM (inactive)
- GI50 [2]: 25.9 µM (inactive)
- GI50 [3]: 17.6 µM (inactive)
- GI50 [4]: 32.9 µM (inactive)
- GI50 [5]: 19.8 µM (inactive)
- GI50 [6]: 34.4 µM (inactive)
- GI50 [7]: 26.6 µM (inactive)
- GI50 [8]: 37.2 µM (inactive)
- GI50 [9]: 31 µM (inactive)
- GI50 [10]: 40 µM (inactive)
- GI50 [11]: 24.4 µM (inactive)
- GI50 [12]: 31.2 µM (inactive)
- GI50 [13]: 25.2 µM (inactive)
- GI50 [14]: 55.5 µM (inactive)
- GI50 [15]: 75.7 µM (inactive)
- GI50 [16]: 35.2 µM (inactive)
- GI50 [17]: 71.9 µM (inactive)
- GI50 [18]: 47.5 µM (inactive)
- GI50 [19]: 30.2 µM (inactive)
- GI50 [20]: 38.3 µM (inactive)
- GI50 [21]: 35.5 µM (inactive)
- GI50 [22]: 31.5 µM (inactive)
- GI50 [23]: 40.6 µM (inactive)
- GI50 [24]: 42.3 µM (inactive)
- GI50 [25]: 55.6 µM (inactive)
- GI50 [26]: > 100 µM (inactive)
- GI50 [27]: 51.4 µM (inactive)
- GI50 [28]: 23.9 µM (inactive)
- GI50 [29]: 35.4 µM (inactive)
- GI50 [30]: 23.9 µM (inactive)
- GI50 [31]: 27.8 µM (inactive)
- GI50 [32]: 35.6 µM
- GI50 [33]: 31.3 µM (inactive)
- GI50 [34]: 30.8 µM (inactive)
- GI50 [35]: 26.9 µM (inactive)
- GI50 [36]: 73.6 µM (inactive)
- GI50 [37]: 58.3 µM (inactive)
- GI50 [38]: 66.4 µM (inactive)
- GI50 [39]: 43.2 µM (inactive)
- GI50 [40]: 41.7 µM (inactive)
- GI50 [41]: 33.5 µM (inactive)
- GI50 [42]: 34.1 µM (inactive)
- GI50 [43]: 36.4 µM (inactive)
- GI50 [44]: 67.1 µM (inactive)
- GI50 [45]: 26.7 µM (inactive)
- GI50 [46]: 34.8 µM (inactive)
- GI50 [47]: 42.3 µM (inactive)
- GI50 [48]: 16.6 µM (inactive)
- GI50 [49]: 23.1 µM (inactive)
- GI50 [50]: 31.3 µM (inactive)
- GI50 [51]: 34.8 µM (inactive)
- GI50 [52]: 70.6 µM (inactive)
- GI50 [53]: 87.9 µM (inactive)
- GI50 [54]: > 100 µM (inactive)
- GI50 [55]: 66.2 µM (inactive)
- GI50 [56]: 33 µM (inactive)
- GI50 [57]: 40.6 µM (inactive)
- GI50 [58]: 24.9 µM (inactive)

SMILES: OC12C3C4CC5C(C4[C@@H]1Br)C2[C@@](O)(c1c(F)c(F)c(F)c(F)c1F)C53 (some centres undefined)
- GI50 [1]: 37 µM (inactive)
- GI50 [2]: 29.6 µM (inactive)
- GI50 [3]: 26.2 µM (inactive)
- GI50 [4]: > 100 µM (inactive)
- GI50 [5]: 24 µM (inactive)
- GI50 [6]: 25.9 µM (inactive)
- GI50 [7]: 27.5 µM (inactive)
- GI50 [8]: 39.4 µM (inactive)
- GI50 [9]: 27.1 µM (inactive)
- GI50 [10]: 27.2 µM (inactive)
- GI50 [11]: 41.7 µM (inactive)
- GI50 [12]: 34.9 µM (inactive)
- GI50 [14]: 56.4 µM (inactive)
- GI50 [15]: 35.1 µM (inactive)
- GI50 [16]: 24.8 µM (inactive)
- GI50 [17]: 43.3 µM (inactive)
- GI50 [18]: 23.3 µM (inactive)
- GI50 [19]: > 100 µM (inactive)
- GI50 [20]: 33.7 µM (inactive)
- GI50 [21]: 38.7 µM (inactive)
- GI50 [22]: 37.6 µM (inactive)
- GI50 [23]: 38 µM (inactive)
- GI50 [24]: 32 µM (inactive)
- GI50 [25]: 36.5 µM (inactive)
- GI50 [26]: 47.8 µM (inactive)
- GI50 [27]: 51.1 µM (inactive)
- GI50 [28]: 24.5 µM (inactive)
- GI50 [29]: 21.7 µM (inactive)
- GI50 [31]: 22.2 µM (inactive)
- GI50 [32]: 39.8 µM
- GI50 [33]: 33.2 µM (inactive)
- GI50 [34]: 23.3 µM (inactive)
- GI50 [35]: 41.4 µM (inactive)
- GI50 [36]: 41.8 µM (inactive)
- GI50 [37]: 35.6 µM (inactive)
- GI50 [38]: 68.2 µM (inactive)
- GI50 [39]: 15.7 µM (inactive)
- GI50 [40]: 21.4 µM (inactive)
- GI50 [41]: 28.2 µM (inactive)
- GI50 [42]: 26.5 µM (inactive)
- GI50 [43]: 33.7 µM (inactive)
- GI50 [44]: 29.8 µM (inactive)
- GI50 [45]: 21.3 µM (inactive)
- GI50 [46]: 39.4 µM (inactive)
- GI50 [47]: 31.7 µM (inactive)
- GI50 [48]: 24.3 µM (inactive)
- GI50 [49]: 38.2 µM (inactive)
- GI50 [50]: 30.8 µM (inactive)
- GI50 [52]: 21.1 µM (inactive)
- GI50 [53]: 39.8 µM (inactive)
- GI50 [55]: 37.2 µM (inactive)
- GI50 [56]: 20.4 µM (inactive)
- GI50 [57]: 25.6 µM (inactive)
- GI50 [58]: 32.1 µM (inactive)

SMILES: CC1=CN(c2ccccc2)S2=C1c1sc3c(c1N2c1ccc(Br)cc1)CCCC3 (centres undefined)
- GI50 [1]: > 100 µM (inactive)
- GI50 [2]: > 100 µM (inactive)
- GI50 [3]: > 100 µM (inactive)
- GI50 [4]: > 100 µM (inactive)
- GI50 [5]: > 100 µM (inactive)
- GI50 [6]: > 100 µM (inactive)
- GI50 [7]: > 100 µM (inactive)
- GI50 [8]: > 100 µM (inactive)
- GI50 [9]: > 100 µM (inactive)
- GI50 [10]: > 100 µM (inactive)
- GI50 [11]: > 100 µM (inactive)
- GI50 [12]: > 100 µM (inactive)
- GI50 [13]: > 100 µM (inactive)
- GI50 [14]: > 100 µM (inactive)
- GI50 [15]: > 100 µM (inactive)
- GI50 [16]: > 100 µM (inactive)
- GI50 [17]: > 100 µM (inactive)
- GI50 [18]: > 100 µM (inactive)
- GI50 [19]: > 100 µM (inactive)
- GI50 [20]: > 100 µM (inactive)
- GI50 [21]: > 100 µM (inactive)
- GI50 [22]: > 100 µM (inactive)
- GI50 [23]: > 100 µM (inactive)
- GI50 [24]: > 100 µM (inactive)
- GI50 [25]: > 100 µM (inactive)
- GI50 [26]: > 100 µM (inactive)
- GI50 [27]: > 100 µM (inactive)
- GI50 [28]: > 100 µM (inactive)
- GI50 [29]: > 100 µM (inactive)
- GI50 [31]: > 100 µM (inactive)
- GI50 [32]: > 100 µM
- GI50 [33]: > 100 µM (inactive)
- GI50 [34]: > 100 µM (inactive)
- GI50 [35]: 91.2 µM (inactive)
- GI50 [36]: > 100 µM (inactive)
- GI50 [37]: > 100 µM (inactive)
- GI50 [38]: 96.8 µM (inactive)
- GI50 [39]: > 100 µM (inactive)
- GI50 [40]: > 100 µM (inactive)
- GI50 [41]: > 100 µM (inactive)
- GI50 [42]: > 100 µM (inactive)
- GI50 [43]: > 100 µM (inactive)
- GI50 [44]: > 100 µM (inactive)
- GI50 [45]: > 100 µM (inactive)
- GI50 [46]: > 100 µM (inactive)
- GI50 [47]: > 100 µM (inactive)
- GI50 [48]: > 100 µM (inactive)
- GI50 [49]: > 100 µM (inactive)
- GI50 [50]: > 100 µM (inactive)
- GI50 [51]: > 100 µM (inactive)
- GI50 [52]: > 100 µM (inactive)
- GI50 [53]: > 100 µM (inactive)
- GI50 [54]: > 100 µM (inactive)
- GI50 [55]: > 100 µM (inactive)
- GI50 [56]: > 100 µM (inactive)
- GI50 [57]: > 100 µM (inactive)
- GI50 [58]: 97.1 µM (inactive)
